Measured values from article PMC8234231, “In Vitro Inhibition of Renal OCT2 and MATE1 Secretion by Antiemetic Drugs” (International Journal of Molecular Sciences, 2021).
“Also recorded” adds a separate entry of the source.

Experiments:
human OCT2 and MATE1 [1] = experiment: Intracellular accumulation of ASP+ in OCT2/MATE1 double-transfected MDCK cells; format: cell-based; conditions: 120 min
Description: (§1) Cells were incubated with 5-HT3 antagonists in the apical chamber in HBSS pH 6.0 and 5-HT3 antagonists with ASP^+ (25 μM) in the basolateral chamber in HBSS pH 7.4 and incubated at 37 °C for 120 min. To measure time-dependent transcellular transport, an aliquot of the incubation medium (100 μL) from the apical chamber (receiving chamber) was collected at 40, 60, 90, and 120 min and replaced with an equal volume of fresh buffer containing 5-HT3 antagonist or the positive control chemical at the original concentration. […] Cells were lysed with 1% Triton X-100. […] Experiments were performed in three individual Transwell inserts.

OCT2 and MATE1 = experiment: Inhibition of basolateral-to-apical transcellular transport of ASP+ in OCT2/MATE1 double-transfected MDCK cells (Transwell); conditions: human, probe ASP+ (25 μM, basolateral chamber)
Description: (§2) Control and OCT2/MATE1-expressing MDCK cells were evaluated for protein expression of OCT2 and MATE1 using SDS-PAGE and western blotting with specific primary antibodies (OCT2, sc292622 1:500 and MATE1, sc133390 1:250, Santa Cruz Biotechnology, Santa Cruz, CA, USA), followed by an antirabbit HRP-conjugated secondary antibody (1:1000, Sigma Aldrich, St. Louis, MO, USA) and Super Signal Western Dura Extended Duration Substrate (Pierce Biotechnology, Rockford, IL, USA). Detection was performed with a FluorChem imager (ProteinSimple, Santa Clara, CA, USA). Both MDCK cell lines were seeded on 0.4 μm transwell inserts (VWR, Radnor, PA, USA) at a density of 2 × 10^5 cells/cm^2. Transport experiments were performed 3 to 5 days after seeding. The integrity of MDCK monolayers was verified by measuring transepithelial electrical resistance (TEER) >150 Ω*cm^2 using an epithelial voltohmmeter, EVOM^2 (World Precision Instruments, Sarasota, FL). Proper formation of tight junctions was also verified by measurement of passive permeability of lucifer yellow in the basolateral-to-apical (B-to-A) direction. Lucifer yellow (20 μM) was applied to the basolateral chamber for 1 h, and media were collected from the apical chamber.
(§3) After washing the cells once with Hank’s Buffered Saline Solution (HBSS) pH 7.4, transport studies were initiated after aspirating the wash buffer from both the apical and basal chambers. […] Cells were lysed with 1% Triton X-100. […] Intracellular fluorescence was normalized to total protein concentration of cell lysates from each transwell using the BCA assay. Experiments were performed in three individual Transwell inserts.

human OCT2 and MATE1 [2] = experiment: as above; conditions: inhibitor 0.5–20 μM
Description: as §2, §3

[3] = system: vector control MDCK cells; experiment: Intracellular accumulation of ASP+ in vector control MDCK cells; format: cell-based, canine; conditions: 120 min
Description: as §1

[4] = no reference given, cited from earlier work
MATE1 = target: T1, MATE1 (Homo sapiens, UniProt Q96FL8); experiment: Inhibition of ASP+ uptake in HEK293 cells overexpressing MATE1; format: cell-based; conditions: inhibitor 10 μM, HEK293-MATE1 (data not shown)
T1 construct: expressed in transfected cells; gift of Dr. Kathy Giacomini, UCSF
T1 sequence (Q96FL8 1-570): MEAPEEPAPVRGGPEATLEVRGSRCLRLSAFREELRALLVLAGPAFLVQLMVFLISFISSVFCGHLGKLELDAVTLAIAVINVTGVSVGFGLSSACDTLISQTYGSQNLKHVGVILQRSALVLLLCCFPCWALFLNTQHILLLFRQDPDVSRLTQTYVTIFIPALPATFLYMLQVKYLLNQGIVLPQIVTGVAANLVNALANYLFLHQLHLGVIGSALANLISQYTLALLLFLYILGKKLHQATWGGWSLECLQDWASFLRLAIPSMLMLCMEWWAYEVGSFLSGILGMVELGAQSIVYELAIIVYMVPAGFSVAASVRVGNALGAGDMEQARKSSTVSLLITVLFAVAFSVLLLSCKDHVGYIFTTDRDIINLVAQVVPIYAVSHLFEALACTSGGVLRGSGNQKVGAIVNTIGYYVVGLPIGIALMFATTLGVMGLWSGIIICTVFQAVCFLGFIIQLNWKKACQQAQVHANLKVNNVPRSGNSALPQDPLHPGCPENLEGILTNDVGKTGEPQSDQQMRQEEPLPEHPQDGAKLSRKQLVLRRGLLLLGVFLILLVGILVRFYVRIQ
Description: (§4) After washing once with prewarmed Hank’s Buffered Saline Solution (HBSS), cells were preincubated for 30 min at 37 °C with various 5-HT3 antagonists for OCT2 cells or in a 30 mM NH4Cl solution in HBSS at pH 6.5 for MATE1 cells for intracellular acidification. Uptake into OCT2 cells was initiated through exposure to 10 μM of fluorescent substrate ASP^+ directly in the incubation media. Uptake into MATE1 cells was initiated by application of HBSS at pH 7.4 containing 5-HT3 antagonists and 10 μM of fluorescent substrate ASP^+. […] Media was removed and washed four times with ice-cold HBSS. Cells were lysed with 1% Triton X-100. […] Intracellular fluorescence was normalized to total protein concentration of cell lysates from each well using the bicinchoninic acid (BCA) assay (Pierce Biotechnology, Rockford, IL, USA). Experiments were repeated three separate times, with three to four replicates in each experiment.
(§5) GraphPad Prism v6 (GraphPad Software, La Jolla, CA, USA) was used for statistical analysis.

human OCT2 = target: T2, human OCT2 (Homo sapiens, UniProt O15244); experiment: Inhibition of ASP+ uptake in HEK293 cells overexpressing OCT2; format: cell-based; conditions: ASP+ 10 μM
T2 construct: expressed in transfected cells; gift of Dr. Kathy Giacomini, UCSF
T2 sequence (O15244 1-555): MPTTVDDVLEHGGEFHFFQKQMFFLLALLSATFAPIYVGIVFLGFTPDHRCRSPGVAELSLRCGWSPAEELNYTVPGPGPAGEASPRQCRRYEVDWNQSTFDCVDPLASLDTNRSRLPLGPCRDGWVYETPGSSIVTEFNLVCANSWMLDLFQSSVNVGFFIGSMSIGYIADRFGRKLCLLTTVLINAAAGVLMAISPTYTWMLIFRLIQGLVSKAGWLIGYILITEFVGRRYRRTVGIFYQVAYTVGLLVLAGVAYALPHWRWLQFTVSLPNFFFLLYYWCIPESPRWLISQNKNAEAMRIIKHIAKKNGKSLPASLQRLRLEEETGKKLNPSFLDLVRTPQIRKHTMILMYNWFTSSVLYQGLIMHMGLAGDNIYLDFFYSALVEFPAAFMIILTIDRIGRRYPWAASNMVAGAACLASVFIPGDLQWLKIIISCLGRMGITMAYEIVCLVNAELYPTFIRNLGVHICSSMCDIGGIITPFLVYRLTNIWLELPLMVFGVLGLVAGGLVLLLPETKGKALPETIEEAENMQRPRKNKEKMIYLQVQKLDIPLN
Description: as §4, §5

[5] = substrate: CN(C)c1ccc(/C=C/c2cc[n+](C)cc2)cc1; experiment: Concentration-dependent uptake of ASP+ in OCT2-expressing HEK293 cells; format: cell-based, human; conditions: other: OCT2-expressing HEK293, 0–100 μM, 1 min; 37.0 °C
Description: Figure 2 Time and Concentration-Dependent Accumulation of ASP^+ in HEK293 Cells Overexpressing OCT2 or MATE1. HEK cells expressing empty vector (EV), OCT2, or MATE1 were incubated for different time periods (0.5–20 min, 10 μM ASP^+, 37 °C) to evaluate time-dependent uptake (A) or with increasing concentrations of ASP^+ (0–100 μM, 1 min 37 °C) for concentration-dependent uptake (B) on a shaker. Specific transport uptake is shown in dashed lines. Intracellular fluorescence was quantified and normalized to protein concentration. Data are presented as mean ± SE (n = 3).
OCT2- and MATE1-overexpressing HEK293 cells were seeded in clear poly-^D-lysine-coated 24-well plates (Fisher Scientific, Hanover Park, IL, USA) and grown for 24 h until approximately 90% confluent. […]
GraphPad Prism v6 (GraphPad Software, La Jolla, CA, USA) was used for statistical analysis. Km and Vmax were calculated using nonlinear regression (Michaelis–Menten enzyme kinetics equation, (Y = Vmax × X/(Km + X), fit for least squares). Data with two variables were analyzed using a two-way ANOVA followed by a one-way ANOVA and/or Dunnett’s post-hoc test for multiple comparisons. IC50 values were calculated via a nonlinear regression to fit least squares. Differences were considered statistically significant at p < 0.05.

Cc1nccn1CC1CCc2c(c3ccccc3n2C)C1=O (centres unmarked) [Ondansetron]
increase in intracellular ASP+ accumulation (human OCT2 and MATE1 [1]; inhibitor 0.5 and 2.5 μM): 1.3 fold | effect on intracellular ASP+ accumulation (human OCT2 and MATE1 [1]; inhibitor 0.5–20 μM, ASP+ 25 μM): at concentrations of 0.5 and 2.5 μM caused significant intracellular accumulation of ASP^+; also recorded: no difference compared to vehicle at higher concentrations (10 and 20 μM) | inhibition at 120 min, 20 μM (OCT2 and MATE1): 36% | inhibition of basolateral-to-apical transcellular transport of ASP+, up to (human OCT2 and MATE1 [2]): up to 64% | effect on B-to-A transport of ASP+ (human OCT2 and MATE1 [2]; 40–120 min, ASP+ 25 μM): inhibited the B-to-A transport of ASP^+ in a concentration-dependent manner; also recorded: inhibited the basolateral-to-apical ASP^+ secretion at all concentrations tested | decrease in accumulation of ASP+ in control cells ([3]; high concentrations of inhibitor): 40% | half-life [4]: < 6 h | metabolized by cytochrome P450 enzymes in the liver ([4]; range for the named drugs together): 48–95%

Cc1cc2c(s1)Nc1ccccc1N=C2N1CCN(C)CC1 [olanzapine]
decrease in intracellular accumulation of ASP+ (human OCT2 and MATE1 [1]; inhibitor 20 μM): 51% | inhibition of MATE1 activity (MATE1): None of these drugs inhibited MATE1 activity | effect on ASP+ uptake in OCT2-expressing HEK293 cells (human OCT2): inhibited OCT2 activity across a range of concentrations | effect on intracellular accumulation of ASP+ in control cells ([3]; cimetidine 5 and 50 μM, pyrimethamine 1 μM, olanzapine 20 μM): modest decrease in ASP^+ accumulation

B1: human OCT2 (Homo sapiens) (protein)
chain: MPTTVDDVLEHGGEFHFFQKQMFFLLALLSATFAPIYVGIVFLGFTPDHRCRSPGVAELSLRCGWSPAEELNYTVPGPGPAGEASPRQCRRYEVDWNQSTFDCVDPLASLDTNRSRLPLGPCRDGWVYETPGSSIVTEFNLVCANSWMLDLFQSSVNVGFFIGSMSIGYIADRFGRKLCLLTTVLINAAAGVLMAISPTYTWMLIFRLIQGLVSKAGWLIGYILITEFVGRRYRRTVGIFYQVAYTVGLLVLAGVAYALPHWRWLQFTVSLPNFFFLLYYWCIPESPRWLISQNKNAEAMRIIKHIAKKNGKSLPASLQRLRLEEETGKKLNPSFLDLVRTPQIRKHTMILMYNWFTSSVLYQGLIMHMGLAGDNIYLDFFYSALVEFPAAFMIILTIDRIGRRYPWAASNMVAGAACLASVFIPGDLQWLKIIISCLGRMGITMAYEIVCLVNAELYPTFIRNLGVHICSSMCDIGGIITPFLVYRLTNIWLELPLMVFGVLGLVAGGLVLLLPETKGKALPETIEEAENMQRPRKNKEKMIYLQVQKLDIPLN
notes: expressed in transfected cells; gift of Dr. Kathy Giacomini, UCSF
Km [5]: 2.9 µM | Vmax [5]: 8.1 nmol/mg/min
